Source: patent publication US20070185153A1 (priority 2005, published 2007)
Structures can show the parent of a compound that is named as a salt.

These molecules were tested on panel of Gram-positive organisms and panel of Gram-negative organisms (assay: organism not typed). Details: read-out: MIC (minimum inhibitory concentration).
Format: cell-based

Structure (SMILES) | MIC [µg/mL]
O=c1c(Cl)cc2ncc(F)c3c2n1CC3(O)CN1CCC(NCc2cc3c(cn2)OCCO3)CC1 (racemic) [Example 24, (4R/S)-8-Chloro-4-({4-[(2,3-dihydro[1,4]dioxino[2,3-c]pyridin-7-ylmethyl)amino]-1-piperidinyl}methyl)-3-fluoro-4-hydroxy-4,5-dihydro-7H-pyrrolo[3,2,1-de]-1,5-naphthyridin-7-one dihydrochloride] | ≤ 4
CC(C)n1nnc2cc(CNC3CCN(C[C@]4(O)Cn5c(=O)ccc6ncc(F)c4c65)CC3)ccc21 [Example 47] | ≤ 8
O=c1[nH]c2ccccc2nc1CNC1CCN(C[C@]2(O)Cn3c(=O)ccc4ncc(F)c2c43)CC1 [Example 38] | ≤ 4
COc1cnc2ccc(=O)n3c2c1[C@](O)(CN1CCC(NCc2cc4c(cn2)OCCO4)CC1)C3 [Example 65] | ≤ 8
O=c1[nH]c(CNC2CCN(C[C@]3(O)Cn4c(=O)ccc5ncc(F)c3c54)CC2)nc2ccccc12 [Example 39] | ≤ 4

Same assay, conditions: read-out: MIC values

Structure (SMILES) | MIC [µg/mL]
COc1cnc2ccc(=O)n3c2c1[C@](O)(CN1CCC(NCc2cc4c(nn2)OCCO4)CC1)C3 [Example 66] | ≥ 16
